{"source": "BindingDB's records for doi:10.1016/j.carres.2010.10.023", "about": "(East China University of Science and Technology, 2011)", "experiment_in_all_cases": "Inhibitor Assay", "settings_in_all_cases": "30 °C", "key": {"[1]": {"target": "T1, Tyrosine-protein phosphatase non-receptor type 1 (Homo sapiens, UniProt P18031)", "T1 sequence (P18031 whole entry)": "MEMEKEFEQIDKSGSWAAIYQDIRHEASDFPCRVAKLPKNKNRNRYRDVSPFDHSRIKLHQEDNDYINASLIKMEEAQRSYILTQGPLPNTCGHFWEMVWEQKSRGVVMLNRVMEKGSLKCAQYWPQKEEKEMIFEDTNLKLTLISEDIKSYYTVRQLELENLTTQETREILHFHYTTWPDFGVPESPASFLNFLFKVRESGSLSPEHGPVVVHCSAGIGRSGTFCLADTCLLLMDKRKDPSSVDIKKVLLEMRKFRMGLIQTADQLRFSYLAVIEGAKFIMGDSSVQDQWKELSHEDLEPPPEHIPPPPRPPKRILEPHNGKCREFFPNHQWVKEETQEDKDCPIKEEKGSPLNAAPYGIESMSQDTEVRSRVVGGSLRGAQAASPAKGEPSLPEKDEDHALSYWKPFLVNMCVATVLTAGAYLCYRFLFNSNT", "procedure": "The assay mixture ([…]) containing 50 mM MOPS (pH 6.5), 2 mM pNPP and PTP1B were monitored at 405 nm for 2 min at 30 C."}, "[2]": {"target": "Receptor-type tyrosine-protein phosphatase F (Homo sapiens, UniProt P10586)", "sequence (P10586 whole entry)": "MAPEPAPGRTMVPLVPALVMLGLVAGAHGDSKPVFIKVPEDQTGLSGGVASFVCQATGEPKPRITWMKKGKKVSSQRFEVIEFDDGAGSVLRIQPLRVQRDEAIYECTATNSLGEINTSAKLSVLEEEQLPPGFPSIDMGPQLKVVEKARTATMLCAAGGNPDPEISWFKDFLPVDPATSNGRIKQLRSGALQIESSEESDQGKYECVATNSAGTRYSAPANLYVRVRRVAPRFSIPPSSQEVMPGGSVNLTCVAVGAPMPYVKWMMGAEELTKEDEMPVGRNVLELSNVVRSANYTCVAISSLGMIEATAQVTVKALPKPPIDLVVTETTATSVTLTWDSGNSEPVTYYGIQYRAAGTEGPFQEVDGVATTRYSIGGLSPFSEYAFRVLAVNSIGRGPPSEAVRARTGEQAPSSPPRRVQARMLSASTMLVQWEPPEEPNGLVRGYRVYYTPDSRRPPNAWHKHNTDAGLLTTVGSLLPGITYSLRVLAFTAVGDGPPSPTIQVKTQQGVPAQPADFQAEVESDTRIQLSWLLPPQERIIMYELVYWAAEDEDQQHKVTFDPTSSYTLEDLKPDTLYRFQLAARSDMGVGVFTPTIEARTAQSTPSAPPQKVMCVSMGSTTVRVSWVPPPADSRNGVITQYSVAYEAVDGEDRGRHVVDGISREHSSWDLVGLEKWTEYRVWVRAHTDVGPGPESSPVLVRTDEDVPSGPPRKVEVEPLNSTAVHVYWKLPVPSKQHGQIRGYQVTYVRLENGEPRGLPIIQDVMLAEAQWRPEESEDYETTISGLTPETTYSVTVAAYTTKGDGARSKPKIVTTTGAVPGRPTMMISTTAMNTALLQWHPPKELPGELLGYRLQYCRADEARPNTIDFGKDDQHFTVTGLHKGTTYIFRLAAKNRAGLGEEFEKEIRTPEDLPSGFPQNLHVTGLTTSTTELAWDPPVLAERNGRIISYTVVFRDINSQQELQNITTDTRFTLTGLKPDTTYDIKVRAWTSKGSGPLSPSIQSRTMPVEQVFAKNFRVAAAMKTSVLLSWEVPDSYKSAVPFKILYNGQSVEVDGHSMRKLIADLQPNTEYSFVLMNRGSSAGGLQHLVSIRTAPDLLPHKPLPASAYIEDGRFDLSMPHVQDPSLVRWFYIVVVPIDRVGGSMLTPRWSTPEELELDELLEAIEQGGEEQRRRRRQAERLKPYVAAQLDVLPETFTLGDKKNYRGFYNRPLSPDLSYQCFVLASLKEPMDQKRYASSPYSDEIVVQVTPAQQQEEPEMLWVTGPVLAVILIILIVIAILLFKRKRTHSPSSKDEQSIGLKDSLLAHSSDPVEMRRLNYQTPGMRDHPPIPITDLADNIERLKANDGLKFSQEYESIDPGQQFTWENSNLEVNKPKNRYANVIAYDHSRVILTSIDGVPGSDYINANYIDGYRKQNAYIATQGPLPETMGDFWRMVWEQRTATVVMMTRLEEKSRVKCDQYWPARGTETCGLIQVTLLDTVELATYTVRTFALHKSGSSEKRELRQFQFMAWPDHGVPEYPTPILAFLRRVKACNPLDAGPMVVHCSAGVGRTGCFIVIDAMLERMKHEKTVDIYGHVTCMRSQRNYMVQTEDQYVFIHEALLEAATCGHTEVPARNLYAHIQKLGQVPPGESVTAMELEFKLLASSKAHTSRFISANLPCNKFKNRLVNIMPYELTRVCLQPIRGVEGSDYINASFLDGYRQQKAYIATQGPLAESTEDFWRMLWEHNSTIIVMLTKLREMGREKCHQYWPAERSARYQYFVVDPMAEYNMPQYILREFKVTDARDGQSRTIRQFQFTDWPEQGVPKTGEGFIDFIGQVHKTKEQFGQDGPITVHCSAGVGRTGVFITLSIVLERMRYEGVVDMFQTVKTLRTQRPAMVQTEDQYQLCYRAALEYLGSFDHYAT"}, "[3]": {"target": "T2, Tyrosine-protein phosphatase non-receptor type 11 (Homo sapiens, UniProt Q06124)", "T2 sequence (Q06124 whole entry)": "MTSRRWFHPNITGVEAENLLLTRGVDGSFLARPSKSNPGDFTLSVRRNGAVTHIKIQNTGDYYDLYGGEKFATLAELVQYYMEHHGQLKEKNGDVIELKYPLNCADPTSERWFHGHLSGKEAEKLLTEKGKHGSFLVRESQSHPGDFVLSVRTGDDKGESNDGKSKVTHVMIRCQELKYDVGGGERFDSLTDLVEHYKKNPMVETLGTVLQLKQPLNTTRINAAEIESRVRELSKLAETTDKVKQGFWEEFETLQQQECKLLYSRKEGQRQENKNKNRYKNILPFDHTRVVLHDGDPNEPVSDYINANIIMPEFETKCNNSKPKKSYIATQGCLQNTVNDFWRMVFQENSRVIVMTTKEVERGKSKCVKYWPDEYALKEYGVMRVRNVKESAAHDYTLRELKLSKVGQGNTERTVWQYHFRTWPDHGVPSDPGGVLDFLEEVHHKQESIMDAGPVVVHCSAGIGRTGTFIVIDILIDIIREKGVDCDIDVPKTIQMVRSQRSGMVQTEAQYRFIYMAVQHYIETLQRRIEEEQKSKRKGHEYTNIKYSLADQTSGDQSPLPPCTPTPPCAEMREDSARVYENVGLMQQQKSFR"}, "[4]": {"target": "T3, Tyrosine-protein phosphatase non-receptor type 2 (Homo sapiens, UniProt P17706)", "T3 sequence (P17706 whole entry)": "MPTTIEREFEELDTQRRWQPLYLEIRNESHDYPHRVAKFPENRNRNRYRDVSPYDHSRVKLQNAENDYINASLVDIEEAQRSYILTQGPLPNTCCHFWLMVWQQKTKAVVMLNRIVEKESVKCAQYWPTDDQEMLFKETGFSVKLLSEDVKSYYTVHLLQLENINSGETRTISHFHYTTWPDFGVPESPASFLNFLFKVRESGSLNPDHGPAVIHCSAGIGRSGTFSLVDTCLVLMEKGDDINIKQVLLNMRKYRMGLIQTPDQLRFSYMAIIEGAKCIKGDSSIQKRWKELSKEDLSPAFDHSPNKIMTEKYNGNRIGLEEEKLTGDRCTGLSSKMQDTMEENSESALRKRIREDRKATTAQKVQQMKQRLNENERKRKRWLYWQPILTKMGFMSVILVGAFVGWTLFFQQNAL"}, "[5]": {"target": "Tyrosine-protein phosphatase non-receptor type 6 (Homo sapiens, UniProt P29350)", "sequence (P29350 whole entry)": "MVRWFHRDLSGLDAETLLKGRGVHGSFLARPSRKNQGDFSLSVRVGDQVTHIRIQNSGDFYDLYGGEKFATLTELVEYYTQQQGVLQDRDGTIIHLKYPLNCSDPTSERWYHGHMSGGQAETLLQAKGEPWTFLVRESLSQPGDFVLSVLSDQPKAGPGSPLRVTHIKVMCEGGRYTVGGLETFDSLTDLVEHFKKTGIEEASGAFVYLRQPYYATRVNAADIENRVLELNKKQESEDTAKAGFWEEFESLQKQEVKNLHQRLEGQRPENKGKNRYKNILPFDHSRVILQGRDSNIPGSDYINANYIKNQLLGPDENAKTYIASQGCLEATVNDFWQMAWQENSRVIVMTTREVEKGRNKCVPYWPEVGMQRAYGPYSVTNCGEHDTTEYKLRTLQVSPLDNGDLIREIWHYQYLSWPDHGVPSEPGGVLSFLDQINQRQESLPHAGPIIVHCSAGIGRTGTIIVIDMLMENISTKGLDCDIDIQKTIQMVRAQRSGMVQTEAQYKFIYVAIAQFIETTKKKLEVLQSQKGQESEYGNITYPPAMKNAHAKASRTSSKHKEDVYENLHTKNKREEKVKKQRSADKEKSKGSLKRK"}}}
{"smiles": "COC(=O)C(=O)c1ccc(-n2cc(CO[C@H]3O[C@H](COCc4ccccc4)[C@@H](OCc4ccccc4)[C@H](OCc4ccccc4)[C@H]3OCc3ccccc3)nn2)cc1", "note": "[1-(4-(2-Methoxy-2-oxoacetyl)phenyl)-1H-1,2,3-triazol-4-ylmethyl 2,3,4,6-tetra-O-benzyl-a-D-glucopyranoside (17)]", "values": [{"measurement": "IC50", "setting": "[1]", "result": 12.3, "unit": "µM"}]}
{"smiles": "O=C(O)C(=O)c1ccc(-n2cc(CO[C@H]3O[C@H](COCc4ccccc4)[C@@H](OCc4ccccc4)[C@H](OCc4ccccc4)[C@H]3OCc3ccccc3)nn2)cc1", "note": "[1-(4-(Carboxycarbonyl)phenyl)-1H-1,2,3-triazol-4-ylmethyl 2,3,4,6-tetra-O-benzyl a-D-glucopyranoside (19)]", "values": [{"measurement": "IC50", "setting": "[1]", "result": 5.6, "unit": "µM"}, {"measurement": "IC50", "setting": "[2]", "result": "> 100", "unit": "µM"}, {"measurement": "IC50", "setting": "[3]", "result": 55.4, "unit": "µM"}, {"measurement": "IC50", "setting": "[4]", "result": 6.4, "unit": "µM"}, {"measurement": "IC50", "setting": "[5]", "result": "> 100", "unit": "µM"}]}
{"smiles": "COC(=O)c1ccc(-n2cc(CO[C@H]3O[C@H](COCc4ccccc4)[C@@H](OCc4ccccc4)[C@H](OCc4ccccc4)[C@H]3OCc3ccccc3)nn2)cc1", "note": "[1-(4-(Methoxycarbonyl)phenyl)-1H-1,2,3-triazol-4-ylmethyl 2,3,4,6-tetra-O-benzyl a-D-glucopyranoside (16)]", "values": [{"measurement": "IC50", "setting": "[1]", "result": "> 100", "unit": "µM"}]}
{"smiles": "CC(=O)c1ccc(-n2cc(CO[C@H]3O[C@H](COCc4ccccc4)[C@@H](OCc4ccccc4)[C@H](OCc4ccccc4)[C@H]3OCc3ccccc3)nn2)cc1", "note": "[1-(4-Acetylphenyl)-1H-1,2,3-triazol-4-ylmethyl 2,3,4,6-tetra-O-benzyl a-D-glucopyranoside (11)]", "values": [{"measurement": "IC50", "setting": "[1]", "result": "> 100", "unit": "µM"}]}
{"smiles": "O=C(O)c1ccc(-n2cc(CO[C@H]3O[C@H](COCc4ccccc4)[C@@H](OCc4ccccc4)[C@H](OCc4ccccc4)[C@H]3OCc3ccccc3)nn2)cc1", "note": "[1-(4-Carboxyphenyl)-1H-1,2,3-triazol-4-ylmethyl 2,3,4,6-tetra-O-benzyl a-D-glucopyranoside (18)]", "values": [{"measurement": "IC50", "setting": "[1]", "result": 11.1, "unit": "µM"}]}
{"smiles": "[N-]=[N+]=Nc1ccc(C(=O)C(=O)O)cc1", "note": "[1-[4-(carboxycarbonyl)phenyl]triaz-2-yn-2-ium-1-ide (7)]", "values": [{"measurement": "IC50", "setting": "[1]", "result": 30.2, "unit": "µM"}]}
{"smiles": "COC(=O)C(=O)c1ccc(-n2cc(COC[C@H]3O[C@H](OC)[C@H](OCc4ccccc4)[C@@H](OCc4ccccc4)[C@@H]3OCc3ccccc3)nn2)cc1", "note": "[Methyl 2,3,4-tri-O-benzyl-6-O-[1-(4-(2-methoxy-2-oxoacetyl)phenyl)-1H-1,2,3-triazol-4-ylmethyl] a-D-glucopyranoside (13)]", "values": [{"measurement": "IC50", "setting": "[1]", "result": 12.7, "unit": "µM"}]}
{"smiles": "CO[C@H]1O[C@H](COCc2cn(-c3ccc(C(=O)C(=O)O)cc3)nn2)[C@@H](OCc2ccccc2)[C@H](OCc2ccccc2)[C@H]1OCc1ccccc1", "note": "[Methyl 2,3,4-tri-O-benzyl-6-O-[1-(4-(carboxycarbonyl)phenyl)-1H-1,2,3-triazol-4-ylmethyl] a-D-glucopyranoside (15)]", "values": [{"measurement": "IC50", "setting": "[1]", "result": 3.2, "unit": "µM"}, {"measurement": "IC50", "setting": "[2]", "result": "> 100", "unit": "µM"}, {"measurement": "IC50", "setting": "[3]", "result": "> 100", "unit": "µM"}, {"measurement": "IC50", "setting": "[4]", "result": 14.5, "unit": "µM"}, {"measurement": "IC50", "setting": "[5]", "result": "> 100", "unit": "µM"}]}
{"smiles": "COC(=O)c1ccc(-n2cc(COC[C@H]3O[C@H](OC)[C@H](OCc4ccccc4)[C@@H](OCc4ccccc4)[C@@H]3OCc3ccccc3)nn2)cc1", "note": "[Methyl 2,3,4-tri-O-benzyl-6-O-[1-(4-(methoxycarbonyl)-phenyl)-1H-1,2,3-triazol-4-ylmethyl] a-D-glucopyranoside (12)]", "values": [{"measurement": "IC50", "setting": "[1]", "result": "> 100", "unit": "µM"}]}
{"smiles": "CO[C@H]1O[C@H](COCc2cn(-c3ccc(C(C)=O)cc3)nn2)[C@@H](OCc2ccccc2)[C@H](OCc2ccccc2)[C@H]1OCc1ccccc1", "note": "[Methyl 2,3,4-tri-O-benzyl-6-O-[1-(4-acetylphenyl)-1H-1,2,3-triazol-4-ylmethyl] a-D-glucopyranoside (10)]", "values": [{"measurement": "IC50", "setting": "[1]", "result": "> 100", "unit": "µM"}]}
{"smiles": "CO[C@H]1O[C@H](COCc2cn(-c3ccc(C(=O)O)cc3)nn2)[C@@H](OCc2ccccc2)[C@H](OCc2ccccc2)[C@H]1OCc1ccccc1", "note": "[Methyl 2,3,4-tri-O-benzyl-6-O-[1-(4-carboxyphenyl)-1H-1,2,3-triazol-4-ylmethyl] a-D-glucopyranoside (14)]", "values": [{"measurement": "IC50", "setting": "[1]", "result": "> 100", "unit": "µM"}]}
